Experimental data published in patent US20250170149A1, “NEUROACTIVE STEROIDS FOR TREATMENT OF GASTROINTESTINAL DISEASES OR CONDITIONS” (Sage Therapeutics, Inc., priority 2022, published 2025).
Entries after “also recorded” stand apart in the source; their conditions may differ. Read-outs that look alike come from different tables or passages of the source.

Experiments:
[1] = test system: participants with major depressive disorder (MDD); experiment: Treatment-emergent adverse events (TEAEs) and serious AEs in study NCT04476030, safety set; format: in vivo, human; details: one patient, about 1 hour after zuranolone 50 mg on Day 7; resolved within 22 minutes
Procedure: A randomized, double-blind, parallel-group, active/placebo-controlled study (NCT04476030) in participants with major depressive disorder (MDD) was conducted. The study evaluated the efficacy and safety of zuranolone 50 mg co-initiated with standard-of-care (SOC) antidepressant therapies (ADTs) (zuranolone+ADT) vs placebo co-initiated with SOC ADT (placebo+ADT) in adults with MDD. Patients were randomized 1:1 to once-daily, blinded zuranolone +ADT or placebo+ADT for 14 days then continued open-label SOC ADT for 28 more days.
An AE could therefore be any unfavorable and unintended sign (including an abnormal laboratory finding), symptom or disease temporally associated with the use of a medicinal (investigational) product whether or not related to the medicinal (investigational) product. In clinical studies, an AE could include an undesirable medical condition occurring at any time, including baseline or washout periods, even if no study treatment had been administered.
A treatment emergent adverse event (TEAE) was defined as an AE with onset after the start of investigational product (IP), or any worsening of a pre-existing medical condition/AE with onset after the start of IP and throughout the study. The term IP included any Sage IP, a comparator, or a placebo administered in a clinical study. […]

[2] = test system: patients with major depressive disorder (MDD); details: cited from earlier work; for rates of gastrointestinal adverse reactions compared to placebo, words: 15 most commonly used antidepressants in MDD, Oliva V, et al. 2021; for gastrointestinal tolerability among antidepressants, words: Oliva V. et al. 2021 meta-analysis in MDD

Compound | rates of gastrointestinal adverse reactions compared to placebo, words [2] | further results
C[C@@]1(O)CC[C@H]2[C@H](CC[C@@H]3[C@@H]2CC[C@]2(C)[C@@H](C(=O)Cn4cc(C#N)cn4)CC[C@@H]32)C1 [zuranolone] | – | serious TEAE assessed as related to zuranolone by the investigator [1]: seizure-like phenomenon; also recorded: seizure-like phenomena
CN(C)CCC[C@@]1(c2ccc(F)cc2)OCc2cc(C#N)ccc21 [escitalopram] | higher rates of gastrointestinal adverse reactions | gastrointestinal tolerability among antidepressants, words [2]: least tolerated antidepressants on the gastrointestinal tract; gastrointestinal tolerability among antidepressants, words ([2]; listed as Escitalopram): least tolerated antidepressants on the GI tract
CN1CCN2c3ncccc3Cc3ccccc3C2C1 (stereo not drawn) [mirtazapine] | higher rates of gastrointestinal adverse reactions | –
CCN(CC)C(=O)[C@@]1(c2ccccc2)C[C@H]1CN [levomilnacipran] | higher rates of gastrointestinal adverse reactions | –
COCCCC/C(=N\OCCN)c1ccc(C(F)(F)F)cc1 [fluvoxamine] | higher rates of gastrointestinal adverse reactions | –
Fc1ccc([C@@H]2CCNC[C@H]2COc2ccc3c(c2)OCO3)cc1 [paroxetine] | higher rates of gastrointestinal adverse reactions | –
COc1ccc(C(CN(C)C)C2(O)CCCCC2)cc1 (stereo not drawn) [venlafaxine] | higher rates of gastrointestinal adverse reactions | rates of nausea and vomiting, words ([2]; compared to SSRIs and duloxetine, Gartlehner G, et al. 2011): higher rates of nausea and vomiting
COc1ccc2cccc(CCNC(C)=O)c2c1 [agomelatine] | higher rates of gastrointestinal adverse reactions | –
CNCCC(Oc1ccc(C(F)(F)F)cc1)c1ccccc1 (stereo not drawn) [fluoxetine] | higher rates of gastrointestinal adverse reactions | –
CCOc1ccccc1OC(c1ccccc1)C1CNCCO1 (stereo not drawn) [reboxetine] | higher rates of gastrointestinal adverse reactions | –
Cc1ccc(Sc2ccccc2N2CCNCC2)c(C)c1 [vortioxetine] | higher rates of gastrointestinal adverse reactions | –
CN(C)CCCC1(c2ccc(F)cc2)OCc2cc(C#N)ccc21 (stereo not drawn) [citalopram] | higher rates of gastrointestinal adverse reactions | –
CNCC[C@H](Oc1cccc2ccccc12)c1cccs1 [duloxetine] | higher rates of gastrointestinal adverse reactions | –
CC(NC(C)(C)C)C(=O)c1cccc(Cl)c1 (stereo not drawn) [bupropion] | higher rates of gastrointestinal adverse reactions | –
CN[C@H]1CC[C@@H](c2ccc(Cl)c(Cl)c2)c2ccccc21 [sertraline] | higher rates of gastrointestinal adverse reactions | gastrointestinal tolerability among antidepressants, words [2]: least tolerated antidepressants on the gastrointestinal tract; also recorded: least tolerated antidepressants on the GI tract; incidence of diarrhea, words ([2]; compared to other SSRIs and venlafaxine, Gartlehner G, et al. 2011): higher incidence of diarrhea
CN(C)CC(c1ccc(O)cc1)C1(O)CCCCC1 (stereo not drawn) [desvenlafaxine] | higher rates of gastrointestinal adverse reactions | –
